Measured values from the supplement of paper PMC10307832.

Legend:
Test in all cases: relative viability (nuclei count vs DMSO), 5 days (fraction); higher = more cells survive
[1] = compound: C1COCCN1C2=NC(=NC3=C2OC4=C3C=CC=N4)C5=CC(=CC=C5)NC(=O)C6=CN=C(C=C6)N + CS(=O)(=O)N1CCN(Cc2cc3nc(-c4cccc5[nH]ncc45)nc(N4CCOCC4)c3s2)CC1 [Pictilisib] (partner 1 µM)
Method in brief: (§1)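 Cells from lung cancer lines were seeded into 1536-well plates and, one day later, dosed by pin tool. Treatments were either a single drug or a fixed dose of an anchor drug with five library-drug doses (not always all listed) in √10 steps. After 5 days, nuclei were stained in a one-step fixation (final 0.05% Triton X-100, 1% formaldehyde, 1 ug/ml Hoechst) and counted on 4× images, and relative viability is the treated-to-vehicle nuclei ratio, as the median of duplicate plates.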

SGI-1776 + Lapatinib = compound: CN1CCC(CNc2ccc3ncc(-c4cccc(OC(F)(F)F)c4)n3n2)CC1 [SGI-1776] + CS(=O)(=O)CCNCc1ccc(-c2ccc3ncnc(Nc4ccc(OCc5cccc(F)c5)c(Cl)c4)c3c2)o1 [Lapatinib] (partner 2 µM)
Method in brief: as §1

Entinostat + Navitoclax = compound: Nc1ccccc1NC(=O)c1ccc(CNC(=O)OCc2cccnc2)cc1 [Entinostat] + CC1(C)CCC(c2ccc(Cl)cc2)=C(CN2CCN(c3ccc(C(=O)NS(=O)(=O)c4ccc(N[C@H](CCN5CCOCC5)CSc5ccccc5)c(S(=O)(=O)C(F)(F)F)c4)cc3)CC2)C1 [Navitoclax] (partner 0.5 µM)
Method in brief: as §1

Entinostat + Linsitinib = compound: Nc1ccccc1NC(=O)c1ccc(CNC(=O)OCc2cccnc2)cc1 [Entinostat] + C[C@]1(O)C[C@@H](c2nc(-c3ccc4ccc(-c5ccccc5)nc4c3)c3c(N)nccn32)C1 [Linsitinib] (partner 1 µM)
Method in brief: as §1

Cell Line	relative viability ([1]; first compound 0.06325 µM)	relative viability ([1]; first compound 0.2 µM)	relative viability ([1]; first compound 0.6325 µM)	relative viability ([1]; first compound 2 µM)	relative viability (SGI-1776 + Lapatinib; first compound 0.08 µM)	relative viability (SGI-1776 + Lapatinib; first compound 0.8 µM)	relative viability (SGI-1776 + Lapatinib; first compound 2.53 µM)	relative viability (SGI-1776 + Lapatinib; first compound 8 µM)	relative viability (Entinostat + Navitoclax; first compound 0.02 µM)	relative viability (Entinostat + Navitoclax; first compound 0.06325 µM)	relative viability (Entinostat + Navitoclax; first compound 0.2 µM)	relative viability (Entinostat + Navitoclax; first compound 0.6325 µM)	relative viability (Entinostat + Navitoclax; first compound 2 µM)	relative viability (Entinostat + Linsitinib; first compound 0.02 µM)	relative viability (Entinostat + Linsitinib; first compound 0.06325 µM)	relative viability (Entinostat + Linsitinib; first compound 0.2 µM)	relative viability (Entinostat + Linsitinib; first compound 0.6325 µM)	relative viability (Entinostat + Linsitinib; first compound 2 µM)	relative viability ([1]; first compound 0.02 µM)
LCLC-97TM1	0.173	0.217	0.235	0.184	1	0.79	1.14	0.95	0.341	0.358	0.473	0.308	0.272	0.158	0.147	0.139	0.165	0.14	
NCI-H2347	0.703	0.601	0.619	0.497	1.13	0.965	0.948	0.869	0.839	0.746	0.514	0.19	0.227	0.987	0.984	0.903	0.408	0.349	0.735
NCI-H1915	0.96	0.927	0.898	0.845	0.981	0.95	0.972	0.949	0.809	0.716	0.813	0.613	0.283	1.1	1.04	0.966	0.912	0.459	0.924
NCI-H647	0.483	0.418	0.353	0.339	1.17	0.915	1.01	0.601	0.96	0.995	0.928	0.374	0.0716	1.23	1.14	0.932	0.327	0.121	0.465
NCI-H520	0.327	0.274	0.293	0.179	1.05	0.91	0.756	0.628	1.02	1.02	1.21	0.916	0.456	1.03	1.05	1.09	0.897	0.412	0.302
HCC-366	0.144	0.107	0.107	0.204	1.12	0.95	0.992	0.837	1.06	0.946	0.905	0.529	0.138	0.859	0.758	0.461	0.175	0.0447	0.0246
NCI-H2087	0.848	0.876	0.807	0.642	1.1	1.03	1.09	1.13	0.785	0.853	0.724	0.586	0.337	0.815	0.733	0.779	0.559	0.481	0.881
PC-3 [JPC-3]	0.831	0.739	0.798	0.629	0.441	0.466	0.478	0.371	0.786	0.846	0.777	0.522	0.423	0.956	0.907	0.728	0.716	0.467	0.754
HOP-62	0.82	0.698	0.876	0.499	1.19	0.954	1.16	0.928	1.08	0.923	0.832	0.607	0.217	0.743	1.01	0.711	0.403	0.266	0.792
NCI-H2126	0.524	0.486	0.521	0.442	0.72	0.742	0.772	0.71	0.849	0.833	0.855	0.548	0.396	0.732	0.707	0.618	0.518	0.367	0.455
IA-LM	0.301	0.319	0.353	0.182	0.923	0.726		0.72	0.802	0.861	0.898	0.685	0.378	0.645	0.774	0.785	0.628	0.543	
NCI-H1793	0.279	0.398	0.408	0.361	0.701	0.749	0.668	0.974	0.405	0.599	0.405	0.374	0.218	0.964	0.841	0.834	0.698	0.364	0.312
RERF-LC-KJ	0.618	0.508	0.507	0.478	0.867	0.868	0.728	0.795	0.679	0.905	1.13	0.414	0.314	0.912	0.766	0.885	0.536	0.239	0.46
H3255	0.495	0.458	0.505	0.432	0.285	0.33	0.259	0.198	0.536	0.453	0.309	0.174	0.121	0.892	0.87	0.765	0.507	0.304	0.417
EMC-BAC-2	0.526	0.516	0.523	0.465	0.912	0.902	0.836	0.849	1.21	1.15	1.25	0.968	0.642	0.837	0.915	0.983	0.731	0.487	0.495
